The compounds below were run on MDA-MB-453 (assay: drug sensitivity score (DSS), CellTiter-Glo (DSS (AUC-based score)); higher = stronger drug effect (viability inhibition or cytotoxicity); extreme values may be limits of the assay). Settings: incubation time: 72 h.
Procedure, shortened: (§1)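 Normalisation on every plate relied on 0.1 % DMSO and a positive kill control. The plates, 384-well format, held compound at 5 concentrations 10-fold apart across a compound-specific 10,000-fold range, and breast cancer cell lines in 20 µl suspension were incubated on them for 72 h before CellTox Green and then CellTiter-Glo readings. The drug sensitivity score derives from the area under the fitted dose-response curve.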

Row | SMILES | drug sensitivity score
1 | O=C(CCBr)N1CCN(C(=O)CCBr)CC1 [Pipobroman] | 0
2 | c1cc(CN2CCCNCCNCCCNCC2)ccc1CN1CCCNCCNCCCNCC1 [Plerixafor] | 0
3 | Cn1cc(CNCC2CCN(c3ncc(C(=O)NO)cn3)CC2)c2ccccc21 [Quisinostat] | 23.3
4 | CC(C)N(CCCNC(=O)Nc1ccc(C(C)(C)C)cc1)C[C@H]1O[C@@H](n2cc(Br)c3c(N)ncnc32)[C@H](O)[C@@H]1O [SGC0946] | 0

What follows are compounds tested on CAL-148 in the same assay as above. Settings: incubation time: 72 h.
Procedure, shortened: as §1

Row | SMILES | drug sensitivity score
5 | Cc1cccc(-c2nn3c(c2-c2ccnc4ccc(C(N)=O)cc24)CCC3)n1 [Galunisertib] | 0
6 | Nc1cccc2c1CN(C1CCC(=O)NC1=O)C2=O (stereo not drawn) [Lenalidomide] | 0
7 | C[C@]12O[C@H](C[C@]1(O)CO)n1c3ccccc3c3c4c(c5c6ccccc6n2c5c31)CNC4=O [Lestaurtinib] | 0
8 | O=C1c2c(O)ccc(O)c2C(=O)c2c(NCCNCCO)ccc(NCCNCCO)c21 [Mitoxantrone] | 3.82
9 | Nc1ccccc1NC(=O)c1ccc(CNc2nccc(-c3cccnc3)n2)cc1 [Mocetinostat] | 7.02
10 | COc1nc(N)nc2c1ncn2[C@@H]1O[C@H](CO)[C@@H](O)[C@@H]1O [Nelarabine] | 0
11 | Cc1ccc(Nc2nccc(N(C)c3ccc4c(C)n(C)nc4c3)n2)cc1S(N)(=O)=O [Pazopanib] | 0
12 | CS(=O)(=O)N1CCN(Cc2cc3nc(-c4cccc5[nH]ncc45)nc(N4CCOCC4)c3s2)CC1 [Pictilisib] | 8.61
13 | O=C(NC[C@H](O)CO)c1ccncc1Nc1ccc(I)cc1F [Pimasertib] | 3.19
14 | O=C(CCBr)N1CCN(C(=O)CCBr)CC1 [Pipobroman] | 0
15 | c1cc(CN2CCCNCCNCCCNCC2)ccc1CN1CCCNCCNCCCNCC1 [Plerixafor] | 0
16 | Cn1cc(CNCC2CCN(c3ncc(C(=O)NO)cn3)CC2)c2ccccc21 [Quisinostat] | 18.3
17 | CC(C)N(CCCNC(=O)Nc1ccc(C(C)(C)C)cc1)C[C@H]1O[C@@H](n2cc(Br)c3c(N)ncnc32)[C@H](O)[C@@H]1O [SGC0946] | 0

These compounds were tested on MCF-10A in the same assay as above. Settings: incubation time: 72 h.
Procedure, shortened: as §1

Row | SMILES | drug sensitivity score
18 | Cc1cccc(-c2nn3c(c2-c2ccnc4ccc(C(N)=O)cc24)CCC3)n1 [Galunisertib] | 0
19 | Nc1cccc2c1CN(C1CCC(=O)NC1=O)C2=O (stereo not drawn) [Lenalidomide] | 0
20 | C[C@]12O[C@H](C[C@]1(O)CO)n1c3ccccc3c3c4c(c5c6ccccc6n2c5c31)CNC4=O [Lestaurtinib] | 8.64
21 | O=C1c2c(O)ccc(O)c2C(=O)c2c(NCCNCCO)ccc(NCCNCCO)c21 [Mitoxantrone] | 0
22 | Nc1ccccc1NC(=O)c1ccc(CNc2nccc(-c3cccnc3)n2)cc1 [Mocetinostat] | 1.13
23 | COc1nc(N)nc2c1ncn2[C@@H]1O[C@H](CO)[C@@H](O)[C@@H]1O [Nelarabine] | 0
24 | Cc1ccc(Nc2nccc(N(C)c3ccc4c(C)n(C)nc4c3)n2)cc1S(N)(=O)=O [Pazopanib] | 0
25 | CS(=O)(=O)N1CCN(Cc2cc3nc(-c4cccc5[nH]ncc45)nc(N4CCOCC4)c3s2)CC1 [Pictilisib] | 13.3
26 | O=C(NC[C@H](O)CO)c1ccncc1Nc1ccc(I)cc1F [Pimasertib] | 21.9
27 | O=C(CCBr)N1CCN(C(=O)CCBr)CC1 [Pipobroman] | 0
28 | c1cc(CN2CCCNCCNCCCNCC2)ccc1CN1CCCNCCNCCCNCC1 [Plerixafor] | 0
29 | Cn1cc(CNCC2CCN(c3ncc(C(=O)NO)cn3)CC2)c2ccccc21 [Quisinostat] | 11.5
30 | CC(C)N(CCCNC(=O)Nc1ccc(C(C)(C)C)cc1)C[C@H]1O[C@@H](n2cc(Br)c3c(N)ncnc32)[C@H](O)[C@@H]1O [SGC0946] | 0

The compounds below were run on MDA-MB-231 in the same assay as above. Settings: incubation time: 72 h.
Procedure, shortened: as §1

Row | SMILES | drug sensitivity score
31 | Cc1cccc(-c2nn3c(c2-c2ccnc4ccc(C(N)=O)cc24)CCC3)n1 [Galunisertib] | 0
32 | Nc1cccc2c1CN(C1CCC(=O)NC1=O)C2=O (stereo not drawn) [Lenalidomide] | 0
33 | C[C@]12O[C@H](C[C@]1(O)CO)n1c3ccccc3c3c4c(c5c6ccccc6n2c5c31)CNC4=O [Lestaurtinib] | 2.14
34 | O=C1c2c(O)ccc(O)c2C(=O)c2c(NCCNCCO)ccc(NCCNCCO)c21 [Mitoxantrone] | 0
35 | Nc1ccccc1NC(=O)c1ccc(CNc2nccc(-c3cccnc3)n2)cc1 [Mocetinostat] | 6.07
36 | COc1nc(N)nc2c1ncn2[C@@H]1O[C@H](CO)[C@@H](O)[C@@H]1O [Nelarabine] | 0
37 | Cc1ccc(Nc2nccc(N(C)c3ccc4c(C)n(C)nc4c3)n2)cc1S(N)(=O)=O [Pazopanib] | 0
38 | CS(=O)(=O)N1CCN(Cc2cc3nc(-c4cccc5[nH]ncc45)nc(N4CCOCC4)c3s2)CC1 [Pictilisib] | 6.01
39 | O=C(NC[C@H](O)CO)c1ccncc1Nc1ccc(I)cc1F [Pimasertib] | 6.34
40 | O=C(CCBr)N1CCN(C(=O)CCBr)CC1 [Pipobroman] | 0
41 | c1cc(CN2CCCNCCNCCCNCC2)ccc1CN1CCCNCCNCCCNCC1 [Plerixafor] | 0
42 | Cn1cc(CNCC2CCN(c3ncc(C(=O)NO)cn3)CC2)c2ccccc21 [Quisinostat] | 13.2
43 | CC(C)N(CCCNC(=O)Nc1ccc(C(C)(C)C)cc1)C[C@H]1O[C@@H](n2cc(Br)c3c(N)ncnc32)[C@H](O)[C@@H]1O [SGC0946] | 0

Each compound was assayed on HCC1937 in the same assay as above. Settings: incubation time: 72 h.
Procedure, shortened: as §1

Row | SMILES | drug sensitivity score
44 | Cc1cccc(-c2nn3c(c2-c2ccnc4ccc(C(N)=O)cc24)CCC3)n1 [Galunisertib] | 0
45 | Nc1cccc2c1CN(C1CCC(=O)NC1=O)C2=O (stereo not drawn) [Lenalidomide] | 0
46 | C[C@]12O[C@H](C[C@]1(O)CO)n1c3ccccc3c3c4c(c5c6ccccc6n2c5c31)CNC4=O [Lestaurtinib] | 2.31
47 | O=C1c2c(O)ccc(O)c2C(=O)c2c(NCCNCCO)ccc(NCCNCCO)c21 [Mitoxantrone] | 0
48 | Nc1ccccc1NC(=O)c1ccc(CNc2nccc(-c3cccnc3)n2)cc1 [Mocetinostat] | 6.31
49 | COc1nc(N)nc2c1ncn2[C@@H]1O[C@H](CO)[C@@H](O)[C@@H]1O [Nelarabine] | 0
50 | Cc1ccc(Nc2nccc(N(C)c3ccc4c(C)n(C)nc4c3)n2)cc1S(N)(=O)=O [Pazopanib] | 0
51 | CS(=O)(=O)N1CCN(Cc2cc3nc(-c4cccc5[nH]ncc45)nc(N4CCOCC4)c3s2)CC1 [Pictilisib] | 5.69
52 | O=C(NC[C@H](O)CO)c1ccncc1Nc1ccc(I)cc1F [Pimasertib] | 2.69
53 | O=C(CCBr)N1CCN(C(=O)CCBr)CC1 [Pipobroman] | 0
54 | c1cc(CN2CCCNCCNCCCNCC2)ccc1CN1CCCNCCNCCCNCC1 [Plerixafor] | 0
55 | Cn1cc(CNCC2CCN(c3ncc(C(=O)NO)cn3)CC2)c2ccccc21 [Quisinostat] | 8.41
56 | CC(C)N(CCCNC(=O)Nc1ccc(C(C)(C)C)cc1)C[C@H]1O[C@@H](n2cc(Br)c3c(N)ncnc32)[C@H](O)[C@@H]1O [SGC0946] | 0

The compounds below were run on CAL-120 in the same assay as above. Settings: incubation time: 72 h.
Procedure, shortened: as §1

Row | SMILES | drug sensitivity score
57 | Cc1cccc(-c2nn3c(c2-c2ccnc4ccc(C(N)=O)cc24)CCC3)n1 [Galunisertib] | 0
58 | Nc1cccc2c1CN(C1CCC(=O)NC1=O)C2=O (stereo not drawn) [Lenalidomide] | 2.82e-05
59 | C[C@]12O[C@H](C[C@]1(O)CO)n1c3ccccc3c3c4c(c5c6ccccc6n2c5c31)CNC4=O [Lestaurtinib] | 7.69
60 | O=C1c2c(O)ccc(O)c2C(=O)c2c(NCCNCCO)ccc(NCCNCCO)c21 [Mitoxantrone] | 0
61 | Nc1ccccc1NC(=O)c1ccc(CNc2nccc(-c3cccnc3)n2)cc1 [Mocetinostat] | 6.33
62 | COc1nc(N)nc2c1ncn2[C@@H]1O[C@H](CO)[C@@H](O)[C@@H]1O [Nelarabine] | 0
63 | Cc1ccc(Nc2nccc(N(C)c3ccc4c(C)n(C)nc4c3)n2)cc1S(N)(=O)=O [Pazopanib] | 0.234
64 | CS(=O)(=O)N1CCN(Cc2cc3nc(-c4cccc5[nH]ncc45)nc(N4CCOCC4)c3s2)CC1 [Pictilisib] | 7.47
65 | O=C(NC[C@H](O)CO)c1ccncc1Nc1ccc(I)cc1F [Pimasertib] | 5.16
66 | O=C(CCBr)N1CCN(C(=O)CCBr)CC1 [Pipobroman] | 0
67 | c1cc(CN2CCCNCCNCCCNCC2)ccc1CN1CCCNCCNCCCNCC1 [Plerixafor] | 0
68 | Cn1cc(CNCC2CCN(c3ncc(C(=O)NO)cn3)CC2)c2ccccc21 [Quisinostat] | 12.3
69 | CC(C)N(CCCNC(=O)Nc1ccc(C(C)(C)C)cc1)C[C@H]1O[C@@H](n2cc(Br)c3c(N)ncnc32)[C@H](O)[C@@H]1O [SGC0946] | 0

What follows are compounds tested on DU-4475 in the same assay as above. Settings: incubation time: 72 h.
Procedure, shortened: as §1

Row | SMILES | drug sensitivity score
70 | Cc1cccc(-c2nn3c(c2-c2ccnc4ccc(C(N)=O)cc24)CCC3)n1 [Galunisertib] | 0
71 | Nc1cccc2c1CN(C1CCC(=O)NC1=O)C2=O (stereo not drawn) [Lenalidomide] | 0
72 | C[C@]12O[C@H](C[C@]1(O)CO)n1c3ccccc3c3c4c(c5c6ccccc6n2c5c31)CNC4=O [Lestaurtinib] | 8.11
73 | O=C1c2c(O)ccc(O)c2C(=O)c2c(NCCNCCO)ccc(NCCNCCO)c21 [Mitoxantrone] | 2.92
74 | Nc1ccccc1NC(=O)c1ccc(CNc2nccc(-c3cccnc3)n2)cc1 [Mocetinostat] | 9
75 | COc1nc(N)nc2c1ncn2[C@@H]1O[C@H](CO)[C@@H](O)[C@@H]1O [Nelarabine] | 0
76 | Cc1ccc(Nc2nccc(N(C)c3ccc4c(C)n(C)nc4c3)n2)cc1S(N)(=O)=O [Pazopanib] | 0
77 | CS(=O)(=O)N1CCN(Cc2cc3nc(-c4cccc5[nH]ncc45)nc(N4CCOCC4)c3s2)CC1 [Pictilisib] | 1.25
78 | O=C(NC[C@H](O)CO)c1ccncc1Nc1ccc(I)cc1F [Pimasertib] | 32.3
79 | O=C(CCBr)N1CCN(C(=O)CCBr)CC1 [Pipobroman] | 0
80 | c1cc(CN2CCCNCCNCCCNCC2)ccc1CN1CCCNCCNCCCNCC1 [Plerixafor] | 0
81 | Cn1cc(CNCC2CCN(c3ncc(C(=O)NO)cn3)CC2)c2ccccc21 [Quisinostat] | 16.2
82 | CC(C)N(CCCNC(=O)Nc1ccc(C(C)(C)C)cc1)C[C@H]1O[C@@H](n2cc(Br)c3c(N)ncnc32)[C@H](O)[C@@H]1O [SGC0946] | 0

Each compound was assayed on HCC1599 in the same assay as above. Settings: incubation time: 72 h.
Procedure, shortened: as §1

Row | SMILES | drug sensitivity score
83 | Cc1cccc(-c2nn3c(c2-c2ccnc4ccc(C(N)=O)cc24)CCC3)n1 [Galunisertib] | 0
84 | Nc1cccc2c1CN(C1CCC(=O)NC1=O)C2=O (stereo not drawn) [Lenalidomide] | 0
85 | C[C@]12O[C@H](C[C@]1(O)CO)n1c3ccccc3c3c4c(c5c6ccccc6n2c5c31)CNC4=O [Lestaurtinib] | 7.24
86 | O=C1c2c(O)ccc(O)c2C(=O)c2c(NCCNCCO)ccc(NCCNCCO)c21 [Mitoxantrone] | 0
87 | Nc1ccccc1NC(=O)c1ccc(CNc2nccc(-c3cccnc3)n2)cc1 [Mocetinostat] | 5.88
88 | COc1nc(N)nc2c1ncn2[C@@H]1O[C@H](CO)[C@@H](O)[C@@H]1O [Nelarabine] | 0
